Experimental data as given in PubChem BioAssay AID266 (DTP/NCI, 2004).
Several values for one entry are separate records, joined by “and”; a condition that tells them apart may be missing. Identical values can stand only once. Results filed as inconclusive are left out.

Test system: Nude mice, LX-1 lung xenograft intrarenal, tumor weight T/C
Test: NCI In Vivo Anticancer Drug Screen. Data for tumor model Human Lung LX-1 Xenograft (intrarenal inoculation) in NU/NU BALB/C (nude) mice
Settings: endpoint: mean tumor weight change, higher = larger tumour
Procedure: The antitumor activity of compounds was measured in mice bearing transplantable tumors. Survival or tumor size were measured and the results are expressed as the measurement made in the treated group (T) divided by the measurement made in the vehicle treated control group (C). The tumor model used in this assay is Human Lung LX-1 Xenograft (intrarenal inoculation) in NU/NU BALB/C (nude) mice

[1] = dose: 50.0 mg/kg/injection, schedule: Q01DX010 (sc), vehicle: saline
[2] = dose: 100.0 mg/kg/injection, schedule: Q01DX010 (sc), vehicle: saline
[3] = dose: 200.0 mg/kg/injection, schedule: Q01DX010 (sc), vehicle: saline
[4] = dose: 400.0 mg/kg/injection, schedule: Q01DX010 (sc), vehicle: saline
[5] = dose: 800.0 mg/kg/injection, schedule: Q01DX010 (sc), vehicle: saline
[6] = dose: 150.0 mg/kg/injection, schedule: Q04DX003 (sc), vehicle: Klucel (hydroxypropylcellulose) (HPC)
[7] = dose: 300.0 mg/kg/injection, schedule: Q04DX003 (sc), vehicle: Klucel (hydroxypropylcellulose) (HPC)
[8] = dose: 600.0 mg/kg/injection, schedule: Q04DX003 (sc), vehicle: Klucel (hydroxypropylcellulose) (HPC)
[9] = dose: 1200.0 mg/kg/injection, schedule: Q04DX003 (sc), vehicle: Klucel (hydroxypropylcellulose) (HPC)

c1cc2n(n1)CCN2
T/C (dose: 50.0 mg/kg/injection, schedule: Q01DX010 (ip), vehicle: saline): 107 % of control
T/C [1]: 26 % of control
T/C (dose: 100.0 mg/kg/injection, schedule: Q01DX010 (ip), vehicle: saline): 70 % of control
T/C [2]: 12 % of control
T/C (dose: 166.66 mg/kg/injection, schedule: Q04DX003 (sc), vehicle: saline): 170 % of control
T/C [3]: -33 % of control
T/C (dose: 333.33 mg/kg/injection, schedule: Q04DX003 (sc), vehicle: saline): 150 % of control
T/C (dose: 666.65 mg/kg/injection, schedule: Q04DX003 (sc), vehicle: saline): 59 % of control

O=c1cnn(C2OC(CO)C(O)C2O)c(=O)[nH]1 (stereo not drawn)
T/C [3]: 42 % of control
T/C [4]: 46 % of control
T/C [5]: 35 % of control

COc1cccc2c1C(=O)c1c(O)c3c(c(O)c1C2=O)CC(O)(/C(C)=N/NC(=O)CCC(=O)N/N=C(\C)C1(O)Cc2c(O)c4c(c(O)c2C(OC2CC(N)C(O)C(C)O2)C1)C(=O)c1c(OC)cccc1C4=O)CC3OC1CC(N)C(O)C(C)O1 (stereo not drawn)
T/C (dose: 6.25 mg/kg/injection, schedule: Q01DX010 (sc), vehicle: water): 65 % of control
T/C (dose: 12.5 mg/kg/injection, schedule: Q01DX010 (sc), vehicle: water): 23 % of control

CCNC(C)(C)C(SSS)c1ccco1 (stereo not drawn)
T/C [6]: 82 % of control
T/C [7]: 84 % of control
T/C [8]: 76 % of control

Nc1nc(=S)c2ncn(C3CC(O)C(CO)O3)c2[nH]1 (stereo not drawn)
T/C (dose: 50.0 mg/kg/injection, schedule: Q01DX010 (sc), vehicle: Klucel (hydroxypropylcellulose) (HPC)): 152 % of control
T/C (dose: 100.0 mg/kg/injection, schedule: Q01DX010 (sc), vehicle: Klucel (hydroxypropylcellulose) (HPC)): 118 % of control
T/C (dose: 200.0 mg/kg/injection, schedule: Q01DX010 (sc), vehicle: Klucel (hydroxypropylcellulose) (HPC)): 73 % of control
T/C (dose: 400.0 mg/kg/injection, schedule: Q01DX010 (sc), vehicle: Klucel (hydroxypropylcellulose) (HPC)): 107 % of control

Cc1cc(NCCCCCCCNc2cc(C)nc3cc(N)ccc23)c2ccc(N)cc2n1
T/C (dose: 12.5 mg/kg/injection, schedule: Q01DX010 (sc), vehicle: saline with Tween-80): 48 % of control
T/C (dose: 25.0 mg/kg/injection, schedule: Q01DX010 (sc), vehicle: saline with Tween-80): 11 % of control

COc1ccc2ccccc2c1C1NC(=O)c2ccccc2N1 (stereo not drawn)
T/C [7]: 113 % of control
T/C [8]: 78 % of control
T/C [9]: 83 % of control
T/C (dose: 2400.0 mg/kg/injection, schedule: Q04DX003 (sc), vehicle: Klucel (hydroxypropylcellulose) (HPC)): 83 % of control

CNC(=O)ON(C(C)=O)C(=O)NC
T/C (dose: 25.0 mg/kg/injection, schedule: Q01DX010 (sc), vehicle: saline): 49 % of control
T/C [1]: 85 % of control
T/C [2]: 41 % of control

CN1c2c(nc(N)[nH]c2=O)NCC1CCNc1ccc(C(=O)NC(CCC(=O)O)C(=O)O)cc1 (stereo not drawn)
T/C [2]: 56 % of control
T/C [3]: 28 % of control
T/C [4]: 49 % of control
T/C [5]: 34 % of control

CN(C)P(=O)(Oc1ccccc1)N(C)C
T/C (dose: 150.0 mg/kg/injection, schedule: Q04DX003 (sc), vehicle: saline with Tween-80): 99 % of control
T/C (dose: 300.0 mg/kg/injection, schedule: Q04DX003 (sc), vehicle: saline with Tween-80): 111 % of control
T/C (dose: 600.0 mg/kg/injection, schedule: Q04DX003 (sc), vehicle: saline with Tween-80): 72 % of control
T/C (dose: 1200.0 mg/kg/injection, schedule: Q04DX003 (sc), vehicle: saline with Tween-80): 83 % of control

Cn1cc(C2NC(=O)c3ccccc3N2)c2ccccc21 (stereo not drawn)
T/C [7]: 83 % of control and 103 % of control
T/C (dose: 900.0 mg/kg/injection, schedule: Q04DX003 (sc), vehicle: Klucel (hydroxypropylcellulose) (HPC)): 111 % of control and 92 % of control
T/C [9]: 90 % of control and 103 % of control

CC(CN1CC(=O)NC(=O)C1)N1CC(=O)NC(=O)C1 (stereo not drawn)
T/C [6]: 88 % of control
T/C [7]: 94 % of control
T/C [8]: 45 % of control
